Measured values reported in patent US20250263370A1 (Tay Therapeutics Limited, priority 2022, published 2025).
Values joined by “and” are separate entries in the source; they are usually repeats but may differ in a detail not shown here. Identical values can stand only once.

Tested on: collagen-induced arthritis
Assay: Collagen-induced arthritis (CIA) model in rats: body weight, paw volume, clinical scores, clinical observations; as to Average detailed clinical score, left hind limb: key of the grades not given here; as to Average detailed clinical score, right hind limb: key of the grades not given here; as to Detailed Clinical Scores, left forelimb: key of the grades not given here; as to Detailed Clinical Scores, left hind limb: key of the grades not given here; as to Detailed Clinical Scores, right forelimb: key of the grades not given here; as to Detailed Clinical Scores, right hind limb: key of the grades not given here; as to Detailed Clinical Scores, score: key of the grades not given here; as to Detailed Clinical Scores: left forelimb: key of the grades not given here; as to Detailed Clinical Scores: left hind limb: key of the grades not given here; as to Detailed Clinical Scores: right forelimb: key of the grades not given here; as to Detailed Clinical Scores: right hind limb: key of the grades not given here; as to Detailed Clinical Scores: score: key of the grades not given here; as to Mean overall clinical score ± SD: key of the grades not given here; as to overall clinical score: key of the grades not given here
Conditions: for Average detailed clinical score, left forelimb / Average detailed clinical score, left hind limb / Average detailed clinical score, right forelimb / Average detailed clinical score, right hind limb / Average detailed clinical score, score / Mean overall clinical score ± SD / Detailed Clinical Scores, left forelimb / Detailed Clinical Scores, left hind limb / Detailed Clinical Scores, right forelimb / Detailed Clinical Scores, right hind limb / Detailed Clinical Scores, score / Overall clinical score / Detailed Clinical Scores: left forelimb / Detailed Clinical Scores: left hind limb / Detailed Clinical Scores: right forelimb / Detailed Clinical Scores: right hind limb / Detailed Clinical Scores: score: CIA rats; for Detailed Clinical Scores, left forelimb / Detailed Clinical Scores, left hind limb / Detailed Clinical Scores, right forelimb / Detailed Clinical Scores, right hind limb / Detailed Clinical Scores, score / Detailed Clinical Scores: left forelimb / Detailed Clinical Scores: left hind limb / Detailed Clinical Scores: right forelimb / Detailed Clinical Scores: right hind limb / Detailed Clinical Scores: score: individual animals ID 1-8; for Overall clinical score: individual animals #1-8; for Mean animal paw volume ± SD: group mean; for Animal paw volume percent change: individual animals
Experimental: Prior to be randomly placed in treatment groups, animals were weighed, and paw volume was measured. Once randomly assigned to treatment groups, on Day 0, animals in groups 2-9 were immunized by subcutaneous injection at the base of the tail.
The immunization comprised 100 μL of the CFA+Collagen emulsion (prepared according to the method in Experimental Method A). Animals in group one received no immunization. Seven days after the first injection, animals in groups 2-9 received a booster immunization comprising 200 μL of the IFA+Collagen emulsion (prepared according to the method in Experimental Method A).
Starting on Day 0, animals in group 1 and 2 were administered daily doses of the vehicle per os (P.O.) for 21 days. […] The twice daily doses for animals in groups 4-9 were 8 hours apart (e.g., the first dose at 8:00 AM and the second dose at 4:00 PM).
Body weight of all animals was recorded daily for the 21-day period. Blind clinical scores on all four limbs were conducted for all animals in the study. Animals were assessed prior to receiving their first dose of the compound or control, and scores for each limb were combined to a total daily score for each animal. Clinical score assessments were performed on Day 0, 6, 12, 13, 14, 15, 18, 19, and 21 (for a total of 9 daily scores).
Paw volume was recorded for each animal on Day 0, 6, 12, 13, 14, 15, 18, 19, and 21 (for a total of 9 measurements). To measure paw volume, animals were gently held with one hand while the hind paw was placed into a plethysmometer with the other hand. Lipid displacement by the paw was recorded and used to represent paw volume.
All data measured and recorded was analyzed using SPSS 16.0 software. Groups were compared using one-way ANOVA and significance was set at p<0.05.

C[C@@H]1C[C@H]2[C@@H]3CCC4=CC(=O)C=C[C@]4(C)[C@@]3(F)[C@@H](O)C[C@]2(C)[C@@]1(O)C(=O)CO [dexamethasone]
Average detailed clinical score, left forelimb (Day 13): 0.00
Average detailed clinical score, left hind limb (Day 13): 0.00
Average detailed clinical score, right forelimb (Day 13): 0.00
Average detailed clinical score, right hind limb (Day 13): 0.00
Average detailed clinical score, score (Day 13): 0.00
Mean overall clinical score ± SD (Day 13): 0 ± 0
Detailed Clinical Scores, left forelimb (Day 13): 0
Detailed Clinical Scores, left hind limb (Day 13): 0
Detailed Clinical Scores, right forelimb (Day 13): 0
Detailed Clinical Scores, right hind limb (Day 13): 0
Detailed Clinical Scores, score (Day 13): 0
Overall clinical score (Day 13): 0
Mean animal paw volume ± SD (Day 14, L paw): 1.27 mL
Animal paw volume percent change (Day 14, L paw): −8.18% and −5.36% and 0.00% and −4.53% and −1.54% and −5.00% and −3.75% and −8.46%
Mean animal paw volume ± SD (Day 14, R paw): 1.26 mL
Animal paw volume percent change (Day 14, R paw): −5.62% and −2.70% and 0.00% and −8.92% and −2.33% and −7.72% and −5.17% and −8.06%
Average detailed clinical score, left forelimb (Day 14): 0.00
Average detailed clinical score, left hind limb (Day 14): 0.00
Average detailed clinical score, right forelimb (Day 14): 0.00
Average detailed clinical score, right hind limb (Day 14): 0.00
Average detailed clinical score, score (Day 14): 0.00
Mean overall clinical score ± SD (Day 14): 0 ± 0
Detailed Clinical Scores, left forelimb (Day 14): 0
Detailed Clinical Scores, left hind limb (Day 14): 0
Detailed Clinical Scores, right forelimb (Day 14): 0
Detailed Clinical Scores, right hind limb (Day 14): 0
Detailed Clinical Scores, score (Day 14): 0
Overall clinical score (Day 14): 0
Mean animal paw volume ± SD (Day 15, L paw): 1.26 mL
Animal paw volume percent change (Day 15, L paw): −8.92% and −7.28% and −2.17%
Mean animal paw volume ± SD (Day 15, R paw): 1.26 mL
Animal paw volume percent change (Day 15, R paw): −6.74% and −4.25% and −1.45%
Average detailed clinical score, left forelimb (Day 15): 0.00
Average detailed clinical score, left hind limb (Day 15): 0.00
Average detailed clinical score, right forelimb (Day 15): 0.00
Average detailed clinical score, right hind limb (Day 15): 0.00
Average detailed clinical score, score (Day 15): 0.00
Mean overall clinical score ± SD (Day 15): 0 ± 0
Detailed Clinical Scores: left forelimb (Day 15): 0
Detailed Clinical Scores: left hind limb (Day 15): 0
Detailed Clinical Scores: right forelimb (Day 15): 0
Detailed Clinical Scores: right hind limb (Day 15): 0
Detailed Clinical Scores: score (Day 15): 0
Overall clinical score (Day 15): 0
Mean animal paw volume ± SD (Day 18, L paw): 1.29 mL
Animal paw volume percent change (Day 18, L paw): −5.20% and −6.51% and 4.33%
Mean animal paw volume ± SD (Day 18, R paw): 1.29 mL
Animal paw volume percent change (Day 18, R paw): −4.49% and −4.63% and 4.36%
Average detailed clinical score, left forelimb (Day 18): 0.00
Average detailed clinical score, left hind limb (Day 18): 0.00
Average detailed clinical score, right forelimb (Day 18): 0.00
Average detailed clinical score, right hind limb (Day 18): 0.00
Average detailed clinical score, score (Day 18): 0.00
Mean overall clinical score ± SD (Day 18): 0 ± 0
Detailed Clinical Scores: left forelimb (Day 18): 0
Detailed Clinical Scores: left hind limb (Day 18): 0
Detailed Clinical Scores: right forelimb (Day 18): 0
Detailed Clinical Scores: right hind limb (Day 18): 0
Detailed Clinical Scores: score (Day 18): 0
Overall clinical score (Day 18): 0
Mean animal paw volume ± SD (Day 19, L paw): 1.29 mL
Animal paw volume percent change (Day 19, L paw): −5.20% and −6.90%
Mean animal paw volume ± SD (Day 19, R paw): 1.28 mL
Animal paw volume percent change (Day 19, R paw): −5.24% and −6.18%
Average detailed clinical score, left forelimb (Day 19): 0.00
Average detailed clinical score, left hind limb (Day 19): 0.00
Average detailed clinical score, right forelimb (Day 19): 0.00
Average detailed clinical score, right hind limb (Day 19): 0.00
Average detailed clinical score, score (Day 19): 0.00
Mean overall clinical score ± SD (Day 19): 0 ± 0
Detailed Clinical Scores: left forelimb (Day 19): 0
Detailed Clinical Scores: left hind limb (Day 19): 0
Detailed Clinical Scores: right forelimb (Day 19): 0
Detailed Clinical Scores: right hind limb (Day 19): 0
Detailed Clinical Scores: score (Day 19): 0
Overall clinical score (Day 19): 0
Mean animal paw volume ± SD (Day 21, L paw): 1.28 mL
Animal paw volume percent change (Day 21, L paw): −6.32% and −6.90%
Mean animal paw volume ± SD (Day 21, R paw): 1.29 mL
Animal paw volume percent change (Day 21, R paw): −5.99% and −6.18%
Average detailed clinical score, left forelimb (Day 21): 0.00
Average detailed clinical score, left hind limb (Day 21): 0.00
Average detailed clinical score, right forelimb (Day 21): 0.00
Average detailed clinical score, right hind limb (Day 21): 0.00
Average detailed clinical score, score (Day 21): 0.00
Mean overall clinical score ± SD (Day 21): 0 ± 0
Detailed Clinical Scores: left forelimb (Day 21): 0
Detailed Clinical Scores: left hind limb (Day 21): 0
Detailed Clinical Scores: right forelimb (Day 21): 0
Detailed Clinical Scores: right hind limb (Day 21): 0
Detailed Clinical Scores: score (Day 21): 0
Overall clinical score (Day 21): 0
